Measurements as given in patent US10004701B2, “Methods and compositions for treating infection” (UNIVERSITY OF ROCHESTER, priority 2012, dated 2018).

How the values were obtained:
Assay in all cases: AK assay 384-well format, Prestwick library screening
[1] = tested on: E. cloacae; assay type: cell-based, Enterobacter cloacae; details: 50 μM final drug concentration; for AK-based Prestwick Library Screening Results, E. cloacae (fold increase in extracellular AK activity): planktonic
[2] = tested on: E. coli; assay type: cell-based, Escherichia coli; details: 50 μM final drug concentration; for AK-based Prestwick Library Screening Results, E. coli (fold increase in extracellular AK activity): planktonic
[3] = tested on: P. aeruginosa; assay type: cell-based, Pseudomonas aeruginosa; details: 50 μM final drug concentration; for AK-based Prestwick Library Screening Results, P. aeruginosa (fold increase in extracellular AK activity): planktonic
[4] = tested on: A. baumannii strain 98-37-09; assay type: cell-based, Acinetobacter baumannii; details: 50 μM final drug concentration; for AK-based Prestwick Library Screening Results, A. baumannii (fold increase in extracellular AK activity): planktonic
[5] = tested on: S. aureus strain USA300-0114; assay type: cell-based, Staphylococcus aureus; details: 50 μM final drug concentration; for AK-based Prestwick Library Screening Results, S. aureus (fold increase in extracellular AK activity): planktonic
[6] = tested on: E. faecium; assay type: cell-based, Enterococcus faecium; details: 50 μM final drug concentration; for AK-based Prestwick Library Screening Results, E. faecium (fold increase in extracellular AK activity): planktonic
[7] = tested on: K. pneumoniae; assay type: cell-based, Klebsiella pneumoniae; details: 50 μM final drug concentration; for AK-based Prestwick Library Screening Results, K. pneumoniae (fold increase in extracellular AK activity): planktonic
[8] = 384-well format, cutoff for positive-scoring molecules 3-fold increase
[9] = cutoff for positive-scoring molecules 3-fold increase
[10] = cutoff for positive 3-fold increase

With `OCC(O)CN1CCN(c2ccccc2)CC1` (racemic) [Dropropizine (R,S)] the “AK-based Prestwick Library Screening Results, E. cloacae (increase in extracellular AK activity)” value [1, 8] was 0.5, the “AK-based Prestwick Library Screening Results, E. coli (increase in extracellular AK activity)” value [2, 8] was 0.7 and the “AK-based Prestwick Library Screening Results, P. aeruginosa (increase in extracellular AK activity)” value [3, 8] was 0.5. The “AK-based Prestwick Library Screening Results, A. baumannii (increase in extracellular AK activity)” value [4, 8] was 0.5, the “AK-based Prestwick Library Screening Results, S. aureus (increase in extracellular AK activity)” value [5, 8] was 0.5 and the “AK-based Prestwick Library Screening Results, E. faecium (increase in extracellular AK activity)” value [6, 8] was 0.9. For the same compound, the “AK-based Prestwick Library Screening Results, K. pneumoniae (increase in extracellular AK activity)” value [7, 8] was 0.5.

For `Nc1c2c(nc3ccccc13)CCCC2O.O=C(O)/C=C\C(=O)O` (racemic) [Hydroxytacrine maleate (R,S)], the “AK-based Prestwick Library Screening Results, E. cloacae (increase in extracellular AK activity)” value ([1]; planktonic E. cloacae, cutoff for positive-scoring molecules 3-fold increase) was 1.3, the “AK-based Prestwick Library Screening Results, E. coli (increase in extracellular AK activity)” value ([2]; planktonic E. coli, […]) was 1.3 and the “AK-based Prestwick Library Screening Results, P. aeruginosa (increase in extracellular AK activity)” value ([3]; planktonic P. aeruginosa, cutoff for positive-scoring molecules 3-fold increase) was 1.0. For the same compound, the “AK-based Prestwick Library Screening Results, A. baumannii (increase in extracellular AK activity)” value ([4]; planktonic A. baumannii, cutoff for positive-scoring molecules 3-fold increase) was 1.0, the “AK-based Prestwick Library Screening Results, S. aureus (increase in extracellular AK activity)” value ([5]; planktonic S. aureus, cutoff for positive-scoring molecules 3-fold increase) was 3.0 and the “AK-based Prestwick Library Screening Results, E. faecium (increase in extracellular AK activity)” value ([6]; planktonic E. faecium, cutoff for positive-scoring molecules 3-fold increase) was 1.0. The “AK-based Prestwick Library Screening Results, K. pneumoniae (increase in extracellular AK activity)” value ([7]; planktonic K. pneumoniae, cutoff for positive-scoring molecules 3-fold increase) was 1.0.

In the case of `COc1ccc(CC2c3cc(OC)c(OC)cc3CCN2C)cc1OC` (racemic) [Laudanosine (R,S)], the “AK-based Prestwick Library Screening Results, E. cloacae (increase in extracellular AK activity)” value ([1]; planktonic E. cloacae, […]) is reported as 1.3, the “AK-based Prestwick Library Screening Results, E. coli (increase in extracellular AK activity)” value ([2]; planktonic E. coli, […]) is reported as 1.0 and the “AK-based Prestwick Library Screening Results, P. aeruginosa (increase in extracellular AK activity)” value ([3]; planktonic P. aeruginosa, […]) is reported as 0.9. For the same compound, the “AK-based Prestwick Library Screening Results, A. baumannii (increase in extracellular AK activity)” value ([4]; planktonic A. baumannii, […]) was 0.9, the “AK-based Prestwick Library Screening Results, S. aureus (increase in extracellular AK activity)” value ([5]; planktonic S. aureus, […]) was 0.7 and the “AK-based Prestwick Library Screening Results, E. faecium (increase in extracellular AK activity)” value ([6]; planktonic E. faecium, […]) was 0.9. The “AK-based Prestwick Library Screening Results, K. pneumoniae (increase in extracellular AK activity)” value ([7]; planktonic K. pneumoniae, […]) was 0.7.

With `COCCc1ccc(OCC(O)CNC(C)C)cc1.COCCc1ccc(OCC(O)CNC(C)C)cc1.O=C(O)C(O)C(O)C(=O)O` (racemic) [Metoprolol-(+,−) (+)-tartrate salt] the “AK-based Prestwick Library Screening Results, E. cloacae (fold increase in extracellular AK activity)” value [1, 9] was 7.0, the “AK-based Prestwick Library Screening Results, E. coli (fold increase in extracellular AK activity)” value [2, 9] was 0.6 and the “AK-based Prestwick Library Screening Results, P. aeruginosa (fold increase in extracellular AK activity)” value [3, 9] was 0.7. For the same compound, the “AK-based Prestwick Library Screening Results, A. baumannii (fold increase in extracellular AK activity)” value [4, 9] was 0.7, the “AK-based Prestwick Library Screening Results, S. aureus (fold increase in extracellular AK activity)” value [5, 9] was 0.6 and the “AK-based Prestwick Library Screening Results, E. faecium (fold increase in extracellular AK activity)” value [6, 9] was 0.9. The “AK-based Prestwick Library Screening Results, K. pneumoniae (fold increase in extracellular AK activity)” value [7, 9] was 0.5.

With `CC(=O)NC1CCSC1=O` (racemic) [N-Acetyl-DL-homocysteine Thiolactone] the “AK-based Prestwick Library Screening Results, E. cloacae (fold increase in extracellular AK activity)” value [1, 10] was 0.7, the “AK-based Prestwick Library Screening Results, E. coli (fold increase in extracellular AK activity)” value [2, 10] was 0.5 and the “AK-based Prestwick Library Screening Results, P. aeruginosa (fold increase in extracellular AK activity)” value [3, 10] was 0.3. The “AK-based Prestwick Library Screening Results, A. baumannii (fold increase in extracellular AK activity)” value [4, 10] was 0.4, the “AK-based Prestwick Library Screening Results, S. aureus (fold increase in extracellular AK activity)” value [5, 10] was 0.4 and the “AK-based Prestwick Library Screening Results, E. faecium (fold increase in extracellular AK activity)” value [6, 10] was 0.8. For the same compound, the “AK-based Prestwick Library Screening Results, K. pneumoniae (fold increase in extracellular AK activity)” value [7, 10] was 0.4.

`CN1CCC2(C)c3cc(O)ccc3N(C)C12.O=C(O)/C=C/C(=O)O` (single isomer, unassigned; (-)) [(−)-Eseroline fumarate salt] was tested, and the “AK-based Prestwick library screening result, E. cloacae (fold increase in extracellular AK activity)” value ([1]; planktonic E. cloacae, […]) was 1.4, the “AK-based Prestwick library screening result, E. coli (fold increase in extracellular AK activity)” value ([2]; planktonic E. coli, […]) was 1.0 and the “AK-based Prestwick library screening result, P. aeruginosa (fold increase in extracellular AK activity)” value ([3]; planktonic P. aeruginosa, […]) was 0.8. For the same compound, the “AK-based Prestwick library screening result, A. baumannii (fold increase in extracellular AK activity)” value ([4]; planktonic A. baumannii, […]) was 0.9, the “AK-based Prestwick library screening result, S. aureus (fold increase in extracellular AK activity)” value ([5]; planktonic S. aureus, […]) was 0.9 and the “AK-based Prestwick library screening result, E. faecium (fold increase in extracellular AK activity)” value ([6]; planktonic E. faecium, […]) was 1.1. For the same compound, the “AK-based Prestwick library screening result, K. pneumoniae (fold increase in extracellular AK activity)” value ([7]; planktonic K. pneumoniae, […]) was 0.9.

For `CC(C)NCC(O)c1ccc(O)c(O)c1.Cl` (single isomer, unassigned; (-)) [(−)-Isoproterenol hydrochloride], the “AK-based Prestwick library screening result, E. cloacae (fold increase in extracellular AK activity)” value ([1]; planktonic E. cloacae, positive cutoff 3-fold increase) was 2.3, the “AK-based Prestwick library screening result, E. coli (fold increase in extracellular AK activity)” value ([2]; planktonic E. coli, positive cutoff 3-fold increase) was 1.2 and the “AK-based Prestwick library screening result, P. aeruginosa (fold increase in extracellular AK activity)” value ([3]; planktonic P. aeruginosa, positive cutoff 3-fold increase) was 1.1. For the same compound, the “AK-based Prestwick library screening result, A. baumannii (fold increase in extracellular AK activity)” value ([4]; planktonic A. baumannii, positive cutoff 3-fold increase) was 0.9, the “AK-based Prestwick library screening result, S. aureus (fold increase in extracellular AK activity)” value ([5]; planktonic S. aureus, positive cutoff 3-fold increase) was 0.9 and the “AK-based Prestwick library screening result, E. faecium (fold increase in extracellular AK activity)” value ([6]; planktonic E. faecium, positive cutoff 3-fold increase) was 0.9. The “AK-based Prestwick library screening result, K. pneumoniae (fold increase in extracellular AK activity)” value ([7]; planktonic K. pneumoniae, positive cutoff 3-fold increase) was 1.2.
